Test system: PHA-P-activated PBMCs
Assay: Toxicity test, viability of PHA-P-activated PBMCs
Type: cell-based, human
Conditions: at the doses tested
Experimental: The PBMCs are separated from the other represented elements of the blood by ficoll (MSL 2000, Eurobio) gradient centrifiguation: 30 ml of blood, from a healthy donor, diluted by a third are deposited onto a 20 ml ficoll cushion. After centrifugation for 20 min at 850 g, the ring of PBMCs is removed and then washed twice with RPMI 1640, after centrifugation at 750 g for 10 min and at 400 g for 5 min. The PBMCs are then activated for 48 h with 1 μg/ml of phytohaemagglutinin-P (PHA-P; Difco Laboratories). The PBMCs are cultured at +37° C., in an atmosphere saturated with humidity, under 5% CO2. At the end of the 48 hours of mitogenic activation, they are cultured in medium B. Throughout the culturing, the culture supernatants are sampled, and the culture media are renewed every three or four days. At each renewal of the culture media, the cell viability is evaluated by microscopic observation.
In all the experiments, the effects of the new molecules were compared to those of AZT. […] CD4 mimetic toxicity tests were also carried out on the same cells.

`Cc1cn([C@H]2C[C@H](N=[N+]=[N-])[C@@H](CO)O2)c(=O)[nH]c1=O` [AZT] was tested. Which “viability of the PHA-P-activated PBMCs (in words)” value did it give?
Its value is “none of the compounds, AZT, SAH-CD4 or anti-CD4 mimetics, decreased the viability”.

— US7374875B2, “Peptides having affinity for the gp120 viral protein and use thereof” (priority 2001, dated 2008)
